Measured values: patent US4220790A, “1-N,N-Dimethylcarbamyl-3-tert.butyl-5-methylthio-1,2,4-triazole” (priority 1977, dated 1980)

Key:
Southern Corn Rootworm [1] = experiment: Southern corn rootworm (SCR) test in cups with corn; format: in vivo; settings: for Corn Rootworm (SCR) rating: nine days after treatment; for toxicity to corn rootworm (in words): comparative tests, nineteen compounds
Description: Method for Southern Corn Rootworm (SCR)
Three 5 oz. paper cups planted each with one kernel of DeKalb XL-361 corn are treated two days after planting with 10 ml of a 125 ppm solution of the candidate compound. Compounds with high efficacy are tested at lower concentrations. The experiment is a 4×5 factorial in a randomized complete block design with three replications. The tests are evaluated nine days after treatment. The roots are inspected under a dissecting microscope and rated as follows:
SCR Rating % Root Feeding Damage
So as to obtain more meaningful results, all tests are performed at the same time of day, whenever possible, usually in the forenoon. Temperature,illumination and humidity are the same in all tests. Atmospheric pressure is not controlled.
(§1) Results obtained with the novel insecticide of this invention at various concentrations of active chemical are tabulated below. The ratings given are for averages of three or more replicates. The oral lethal dose for 50 percent kill of laboratory rats is also recorded in the table. In conducting the toxicity tests on rats, 0.01 g of active chemical per ml in corn oil is employed as an additive to the diet of the animals.

Southern corn rootworm [2] = experiment: Corn rootworm control under corn growing conditions, aging in soil, root damage rating; format: in vivo, Diabrotica undecimpunctata howardi; design: AVERAGE ROOT DAMAGE RATINGS, Test No. 1 / AVERAGE ROOT DAMAGE RATINGS, Test No. 2 / AVERAGE ROOT DAMAGE RATINGS, Test No. 3 / AVERAGE ROOT DAMAGE RATINGS, Test No. 4 / AVERAGE ROOT DAMAGE RATINGS, Test No. 5: scale not given here; settings: for AVERAGE ROOT DAMAGE RATINGS, Test No. 3 / AVERAGE ROOT DAMAGE RATINGS, Test No. 4 / AVERAGE ROOT DAMAGE RATINGS, Test No. 5: 1.0 lb/A; for AVERAGE ROOT DAMAGE RATINGS, Test No. 3 / AVERAGE ROOT DAMAGE RATINGS, Test No. 1: aged 11 days; for AVERAGE ROOT DAMAGE RATINGS, Test No. 4: aged 26 days; for AVERAGE ROOT DAMAGE RATINGS, Test No. 5 / AVERAGE ROOT DAMAGE RATINGS, Test No. 2: aged 41 days; for AVERAGE ROOT DAMAGE RATINGS, Test No. 1 / AVERAGE ROOT DAMAGE RATINGS, Test No. 2: 10.0 lb/A
From the text: During this period of time in the soil the insecticide concentration diminishes as a result of leaching and the action of oxygen and soil microbes, so that it is difficult to maintain sufficient concentration to kill the rootworms. […] Less than a half dozen compounds enjoy substantial commercial success for this purpose. […] Carbofuran was therefore selected as a standard for comparison of his compound and closely related compounds for corn rootworm control under corn growing conditions. The organism used in these tests were Diabrotica undecimpunctata howardi, the Southern corn rootworm. The following method was employed in the tests:
Two parallel rows of corn (Pioneer 385 g×526 g untreated) were planted 2" apart down the center of Mirro No. C8509 aluminum bread pans, 5 kernels corn per row in greenhouse potting soil. The dimensions of the bread pans are 95/8"×51/2"×23/4" and lack holes in the bottoms of the pans. Each kernel of corn at time of germination was infested with 3-day-old SCR eggs, approximately 50 eggs per kernel. Test pans were treated by drenching 200 mls of test solution (Triton X-100, water and the test chemical dissolved in 5 mls acetone) on the surface of the soil in the bread pan. The schedule for treating, planting corn, and infesting with corn rootworm eggs were varied to test aging characteristics of the compounds in soil. The test pans were watered daily and held at 80° F. and 50% R.H. until rated. Root damage rating was done by the following rating sequence:
Rating % Root Damage Rating
The chemical compound which were tested were those of the structural formula [drawing 5] in which R represents tert.butyl, methyl, ethyl, propyl, butyl and isobutyl.
The comparison standard was carbofuran (2,3-dihydro-2,2-dimethyl-7-benzofuranyl methylcarbamate).
The tests were conducted during the months of July and August according to the time schedule as set forth below: […]

[3] = system: insects of the orders Coleoptera and Orthoptera; experiment: Effectiveness against insects of the orders Coleoptera and Orthoptera; format: in vivo
two-spotted mites = experiment: Spray test on two-spotted mites (TSM); design: species or system two-spotted mite; settings: in vivo
Description: Method for Mites, Aphids, Bean Beetles and Army Worms
Three 5 oz. paper cups containing Henderson dwarf lima bean plants and one 5 oz. paper cup containing Orange Gem nasturtiums, all growing in vermiculite, are placed on a turntable and sprayed to thorough wetness with 25 ml of a solution of the candidate chemical at the appropriate concentration. Nasturtiums were already infested with 50-100 bean aphids (BA). A bean plant in one paper cup was already infested with 50-100 two-spotted mites (TSM). Leaves from the two remaining bean plants are removed following spraying and placed in disposable petri dishes with 5 southern armyworm (SA) larvae in one petri dish, and 5 Mexican bean beetle (MBB) larvae in the other petri dish. The rating is done approximately 48 hours after spraying as follows:
as §1

In the case of `CCc1nc(SC)n(C(=O)N(C)C)n1` [Example XVI], the “Corn Rootworm (SCR) rating” value (Southern Corn Rootworm [1]; 3 ppm) is reported as 0.5, the “Corn Rootworm (SCR) rating” value (Southern Corn Rootworm [1]; 12 ppm) is reported as 2.5 and the “Corn Rootworm (SCR) rating” value (Southern Corn Rootworm [1]; 25 ppm) is reported as 3.5. For the same molecule, the “Corn Rootworm (SCR) rating” value (Southern Corn Rootworm [1]; 100 ppm) was 3.7, the “total kill of corn rootworm (in words)” value (Southern Corn Rootworm [1]; any concentration) was “failed to give a total kill at any concentration” and the “toxicity to corn rootworm (in words)” value (Southern Corn Rootworm [1]) was “displayed toxicity to corn rootworm”.
`CSc1nc(C)nn1C(=O)N(C)C` [R' = methyl] was tested, and the “AVERAGE ROOT DAMAGE RATINGS, Test No. 3” value (Southern corn rootworm [2]) was 0 (100), the “AVERAGE ROOT DAMAGE RATINGS, Test No. 4” value (Southern corn rootworm [2]) was 0.1 and the “AVERAGE ROOT DAMAGE RATINGS, Test No. 5” value (Southern corn rootworm [2]) was 0.5. For the same molecule, the “AVERAGE ROOT DAMAGE RATINGS, Test No. 1” value (Southern corn rootworm [2]) was 2.7 and the “AVERAGE ROOT DAMAGE RATINGS, Test No. 2” value (Southern corn rootworm [2]) was 0 (100).
In the case of `CSc1nc(CC(C)C)nn1C(=O)N(C)C` [R' = isobutyl], the “AVERAGE ROOT DAMAGE RATINGS, Test No. 3” value (Southern corn rootworm [2]) is reported as 0.6, the “AVERAGE ROOT DAMAGE RATINGS, Test No. 4” value (Southern corn rootworm [2]) is reported as 0.3 and the “AVERAGE ROOT DAMAGE RATINGS, Test No. 5” value (Southern corn rootworm [2]) is reported as 2.3. For the same molecule, the “AVERAGE ROOT DAMAGE RATINGS, Test No. 1” value (Southern corn rootworm [2]) was 4.8 and the “AVERAGE ROOT DAMAGE RATINGS, Test No. 2” value (Southern corn rootworm [2]) was 3.6.
For `CCc1nc(SC)n(C(=O)N(C)C)n1` [R' = ethyl], the “AVERAGE ROOT DAMAGE RATINGS, Test No. 3” value (Southern corn rootworm [2]) was 0 (100), the “AVERAGE ROOT DAMAGE RATINGS, Test No. 4” value (Southern corn rootworm [2]) was 1.1 and the “AVERAGE ROOT DAMAGE RATINGS, Test No. 5” value (Southern corn rootworm [2]) was 1.0. The “AVERAGE ROOT DAMAGE RATINGS, Test No. 1” value (Southern corn rootworm [2]) was 4.3 and the “AVERAGE ROOT DAMAGE RATINGS, Test No. 2” value (Southern corn rootworm [2]) was 3.0.
With `CSc1nc(C(C)(C)C)nn1C(=O)N(C)C` [1-N,N-Dimethylcarbamyl-3-tert.butyl-5-methylthio-1,2,4-triazole] the “AVERAGE ROOT DAMAGE RATINGS, Test No. 3” value (Southern corn rootworm [2]) was 4.5, the “AVERAGE ROOT DAMAGE RATINGS, Test No. 4” value (Southern corn rootworm [2]) was 4.1 and the “AVERAGE ROOT DAMAGE RATINGS, Test No. 5” value (Southern corn rootworm [2]) was 4.6. The “AVERAGE ROOT DAMAGE RATINGS, Test No. 1” value (Southern corn rootworm [2]) was 5.0, the “AVERAGE ROOT DAMAGE RATINGS, Test No. 2” value (Southern corn rootworm [2]) was 4.3 and the “duration of efficacy against corn rootworm (in words)” value (Southern corn rootworm [2]; compared with carbofuran) was “efficacy of long duration, comparable to the commercial insecticide”. The “Corn Rootworm (SCR) rating” value (Southern Corn Rootworm [1]; 3 ppm, listed as U.S.Ser.No. 842,760) was 3.0, the “Corn Rootworm (SCR) rating” value (Southern Corn Rootworm [1]; 6 ppm) was 3.3 and the “toxicity to corn rootworm (in words)” value (Southern Corn Rootworm [1]) was “displayed toxicity to corn rootworm”. For the same molecule, the “insecticidal effectiveness (in words)” value [3] was “effective against insects of the orders Coleoptera and Orthoptera” and the “miticidal activity (in words)” value (two-spotted mites) was “absence of miticidal activity”.
`CCCc1nc(SC)n(C(=O)N(C)C)n1` [R' = propyl] was tested, and the “AVERAGE ROOT DAMAGE RATINGS, Test No. 3” value (Southern corn rootworm [2]) was 0.3, the “AVERAGE ROOT DAMAGE RATINGS, Test No. 4” value (Southern corn rootworm [2]) was 1.8 and the “AVERAGE ROOT DAMAGE RATINGS, Test No. 5” value (Southern corn rootworm [2]) was 2.3. The “AVERAGE ROOT DAMAGE RATINGS, Test No. 1” value (Southern corn rootworm [2]) was 4.4 and the “AVERAGE ROOT DAMAGE RATINGS, Test No. 2” value (Southern corn rootworm [2]) was 3.1.
`CNC(=O)Oc1cccc2c1OC(C)(C)C2` [Carbofuran, 2,3-dihydro-2,2-dimethyl-7-benzofuranyl methylcarbamate] was tested, and the “AVERAGE ROOT DAMAGE RATINGS, Test No. 3” value (Southern corn rootworm [2]) was 4.3, the “AVERAGE ROOT DAMAGE RATINGS, Test No. 4” value (Southern corn rootworm [2]) was 3.8 and the “AVERAGE ROOT DAMAGE RATINGS, Test No. 5” value (Southern corn rootworm [2]) was 4.7. For the same molecule, the “AVERAGE ROOT DAMAGE RATINGS, Test No. 1” value (Southern corn rootworm [2]) was 4.8 and the “AVERAGE ROOT DAMAGE RATINGS, Test No. 2” value (Southern corn rootworm [2]) was 4.1.
In the case of `CCCCc1nc(SC)n(C(=O)N(C)C)n1` [R' = butyl], the “AVERAGE ROOT DAMAGE RATINGS, Test No. 3” value (Southern corn rootworm [2]) is reported as 0 (100), the “AVERAGE ROOT DAMAGE RATINGS, Test No. 4” value (Southern corn rootworm [2]) is reported as 0.4 and the “AVERAGE ROOT DAMAGE RATINGS, Test No. 5” value (Southern corn rootworm [2]) is reported as 0.5. The “AVERAGE ROOT DAMAGE RATINGS, Test No. 1” value (Southern corn rootworm [2]) was 4.4 and the “AVERAGE ROOT DAMAGE RATINGS, Test No. 2” value (Southern corn rootworm [2]) was 3.6.
